Measurements from the CATMoS acute toxicity set (Mansouri et al. 2021).

Test: GHS categories as the set defines them, by LD50: 1 up to 5, 2 up to 50, 3 up to 300, 4 up to 2000, 5 above 2000 mg/kg
Settings: rat; in vivo; po

| Compound | GHS category |
| --- | --- |
| C[S+](C)CC[C@@H](N)C(=O)O (racemic) | 5 |
| COc1ccc(OC(=O)c2ccccc2OC(N)=O)cc1 | 5 |
| CCOC(=O)CSc1nc(C(C)(C)C)nn1C(=O)N(C)C | 3 |
| c1ccc(C2=NN(c3ccccc3)C(c3ccccc3)C2)cc1 (stereo unspecified) | 5 |
| O=C1c2ccccc2C(=O)c2ccccc21 | 5 |
| Cn1cc(-c2ccccc2)c(=O)c(-c2cccc(C(F)(F)F)c2)c1 | 5 |
| CCOc1c(N)c2c(c(OCC)c1OCC)C(C1c3c(cc4c(c3OC)OCO4)CCN1C)OC2=O (stereo unspecified) | 5 |
| CCCCCCCCCCCCCCOC(=O)OOC(=O)OCCCCCCCCCCCCCC | 5 |
| CC(C)c1[nH]c2ccccc2c1C(=O)c1cccnc1 | 5 |
| CCCCCCCCCCCCCCCCOC(=O)Oc1c(Cl)cc(C(=O)OCC)cc1Cl | 5 |
| CN1C(=O)COc2cc(C(=O)c3ccc(Cl)cc3)ccc21 | 5 |
| CCOP(=S)(OCC)SSSP(=S)(OCC)OCC | 5 |
| CC(=O)O[C@]1(C(C)=O)CC[C@H]2[C@@H]3C=C(Cl)C4=CC(=O)[C@@H]5C[C@@H]5[C@]4(C)[C@H]3CC[C@@]21C | 5 |
| C[C@@H]1CN(c2c(F)c(N)c3c(=O)c(C(=O)O)cn(C4CC4)c3c2F)C[C@H](C)N1 (racemic) | 5 |
| CCC(O)OCc1c(Cl)ccc(Cl)c1Cl (stereo unspecified) | 5 |
| CCN(CCCSc1nnnn1C)C(=O)C1CCCCC1 | 4 |
| COc1ncc(F)c2nc(S(=O)(=O)Nc3c(F)cccc3F)nn12 | 5 |
| Brc1c(Br)c(Br)c(CCc2c(Br)c(Br)c(Br)c(Br)c2Br)c(Br)c1Br | 5 |
| O=S(=O)(O)c1ccccc1Nc1ccc(C(=C2C=CC(=Nc3ccccc3)C=C2)c2ccc(Nc3ccccc3)cc2)cc1 | 5 |

| Compound | GHS category |
| --- | --- |
| COc1ccc2cccc(CC#N)c2c1 | 5 |
| Cc1nc2ncnn2c(C)c1Cc1ccc(-c2ccccc2-c2nn[nH]n2)cc1 | 4 |
| Clc1ccc(I)cc1Cc1ccc(OC2CCOC2)cc1 (stereo unspecified) | 5 |
| CCC(Oc1ccc(F)c(C(F)(F)F)c1)C(O)=NCc1ccccc1 (stereo unspecified) | 5 |
| NC(CCOc1ccc(C(=NO)C(=O)NC2CN(C(C(=O)O)c3ccc(O)cc3)C2=O)cc1)C(=O)O (stereo unspecified) | 5 |
| CCCCCCCCCCCCOCCOCCOCCOCCOCCOCCOCCOCCOCCOCCOCCOCCOCCOCCOCCOCCOCCOCCOCCOCCOCCOCCOCCO | 5 |
| CCCCC/C=C\C=C\C(=O)OCC | 5 |
| O=C1NC(=O)C2CC=CCC12 (stereo unspecified) | 5 |
| Brc1c(Br)c(Br)c(OCCOc2c(Br)c(Br)c(Br)c(Br)c2Br)c(Br)c1Br | 5 |
| CCC(O)=C1C(=O)CC(C(=O)O)CC1=O (stereo unspecified) | 5 |
| CC(=O)N(C)C(=O)Oc1cccc2c1OCO2 | 4 |
| COc1cc(/N=N/c2c(Br)cc([N+](=O)[O-])cc2[N+](=O)[O-])c(NC(C)=O)cc1N(CCOC(C)=O)CCOC(C)=O | 5 |
| COCCOCCOC(=O)C(=O)Nc1nc(-c2ccccc2)cs1 | 5 |
| CCOC[C@H]1CO[C@@](Cn2cncn2)(c2cc3ccccc3o2)O1 | 4 |
| CCCCCCCCCCCC(=O)N(CC)CC | 5 |
| CC(c1ccccc1)C1Nc2cc(Cl)c(S(N)(=O)=O)cc2S(=O)(=O)N1 (stereo unspecified) | 5 |
| COc1ccc(C(=O)OC2=C(C(=O)Nc3ccccn3)N(C)S(=O)(=O)c3ccsc32)cc1 | 2 |
| CC(=O)OC1CC[C@H]2[C@@H]3CC[C@H]4CC(=O)C=C(C)[C@]4(C)[C@H]3CC[C@]12C (stereo partly specified) | 5 |
| Cc1cc(S(=O)(=O)O)c(/N=N/c2c(O)c(C(=O)O)cc3ccccc23)cc1Cl | 5 |

| Compound | GHS category |
| --- | --- |
| c1ccc([I+]c2ccccc2)cc1 | 4 |
| CO[C@]1(C)CC[C@@]23C[C@@H]1C(C)(C)[C@@H]2CC[C@H]3C | 5 |
| CC(C)CC(=O)OCc1ccccc1 | 5 |
| COc1ccccc1N1CCN(CC(O)COc2cccc3ccccc23)CC1 (stereo unspecified) | 5 |
| COc1nc(C)nc(NC(=O)NS(=O)(=O)c2ccccc2OCCCl)n1 | 5 |
| O=C(Nc1ccc(Cl)cc1)c1ccccc1 | 4 |
| CC(=O)OCC(=O)[C@@]1(OC(C)=O)CC[C@H]2[C@@H]3C[C@@H](F)C4=CC(=O)C(Br)=C[C@]4(C)[C@@]3(F)[C@@H](O)C[C@@]21C | 5 |
| CC(=O)n1c(=O)oc2ccc(Cl)cc21 | 5 |
| CCCCC(CC)C(=O)OC (stereo unspecified) | 5 |
| CCOc1ccc(NC(=O)c2cc3ccccc3cc2O)cc1 | 5 |
| O=S(=O)(O)c1ccc(/N=N/c2c(O)ccc3cc(S(=O)(=O)O)ccc23)cc1 | 5 |
| O=C1c2ccccc2C(=O)c2c(O)ccc(O)c21 | 5 |
| CC#CCn1c(Br)nc2c1c(=O)[nH]c(=O)n2C | 4 |
| C=CC(C)(CCC=C(C)C)OC(=O)C(C)C (stereo unspecified) | 5 |
| COc1cc(S(=O)(=O)O)c(C)cc1/N=N/c1c(O)ccc2cc(S(=O)(=O)O)ccc12 | 5 |
| CCC(C)(CCC(C)C)C(=O)OCC1CO1 (stereo unspecified) | 5 |
| CO[C@@H](c1cc(C)c(O)c(C)c1)[C@@H](C)CO | 5 |
| CCCC(O)CCO (stereo unspecified) | 5 |
